Values after ≈ are worked out from the molar mass of the structure shown. Like-named read-outs stand apart in the source and are kept apart here. Each block holds one molecule with its values, some of them ahead of it.
What was measured:
physchem [1] = conditions: adult fed state simulated gastric fluid (FeSSGF), milk-based, 37 °C, pH 5, fassgf or other biorelevant, thermodynamic from solid
[2] = cited from earlier work
physchem [3] = conditions: 37 °C, thermodynamic from solid
[4] = design: method as in PMID 26220249; conditions: cited from earlier work
[5] = Table 1, reference per cell, none given for mebendazole
[6] = adult fasted state simulated gastric fluid (FaSSGF), pH 1.6, fassgf or other biorelevant
[7] = adult fasted state simulated intestinal fluid (FaSSIF-V2), pH 6.5, fassif
[8] = adult fed state simulated intestinal fluid (FeSSIF-V2), pH 5.8, fessif
[9] = at least one of the newborn FeSSIF (Pnb-FeSSIF and Pnc-FeSSIF), previous solubility study

- solubility at 48 h (physchem [1]): 158 ± 7.22 µg/mL (≈ 314 µM)
- solubility in pediatric vs adult medium (Pnc-FeSSGF (cow's milk formula) vs adult FeSSGF): significantly lower solubility
- solubility in pediatric vs adult medium (Pns-FeSSGF (soy formula) vs adult FeSSGF): significantly higher solubility
- solubility in pediatric vs adult medium (all pediatric fed intestinal media (Pnb-FeSSIF, Pnc-FeSSIF, Pi-FeSSIF) vs adult FeSSIF-V2): significant solubility differences
- solubility at 24 h (physchem [3]; [6]): 11500 ± 570 µg/mL (≈ 22800 µM)
- solubility at 24 h (physchem [3]; [7]): 11.9 ± 0.17 µg/mL (≈ 23.5 µM)
- solubility at 24 h (physchem [3]; [8]): 81.4 ± 1.74 µg/mL (≈ 161 µM)
SMILES: OCCN(CCO)c1nc(N2CCCCC2)c2nc(N(CCO)CCO)nc(N3CCCCC3)c2n1 [Dipyridamole]
- solubility in pediatric vs adult medium (pediatric fasted gastric fluids (Pn-FaSSGF and Pi-FaSSGF) vs adult FaSSGF, ANOVA p ≤ 0.05): higher solubility in both pediatric gastric fluids; however, these differences were not statistically significant
- pKa (basic) [2, 5]: 5.7–6.4 (basic) [19, 20]

SMILES: COC(=O)Nc1nc2ccc(C(=O)c3ccccc3)cc2[nH]1 [Mebendazole]
- logP [2, 5]: 2.80
- pKa (basic) [2, 5]: 3.5 (basic)

SMILES: Nc1ccc(O)c(C(=O)O)c1 [Mesalazine]
- logP [2, 5]: 0.98 [8]
- pKa (basic) [2, 5]: 5.69
- pKa (acidic) ([2]; Table 1, reference per cell): 2.3
- pKa (basic) ([2]; no reference given): 5.7

SMILES: CC(C)(O)c1ccccc1CC[C@@H](SCC1(CC(=O)O)CC1)c1cccc(/C=C/c2ccc3ccc(Cl)cc3n2)c1 [Montelukast]
- pKa (basic) [2, 5]: 2.7
- pKa (acidic) ([2]; Table 1, reference per cell): 5.8

- solubility at 48 h (physchem [1]): 390 ± 6.35 µg/mL (≈ 1640 µM)
- solubility differences between adults and pediatrics (all pediatric media tested): no significant solubility differences
- solubility at 24 h (physchem [3]; [6]): 196 ± 11.7 µg/mL (≈ 823 µM)
- solubility at 24 h (physchem [3]; [7]): 215.7 ± 1.96 µg/mL (≈ 906 µM)
- solubility at 24 h (physchem [3]; [8]): 209 ± 3.22 µg/mL (≈ 879 µM)
SMILES: O=C1CN(/N=C/c2ccc([N+](=O)[O-])o2)C(=O)N1 [Nitrofurantoin]
- Sp/Sa (%) vs 80–[…] risk assessment limits (all pediatric media tested): within the 80–125% risk assessment limits
- pKa (acidic) ([2]; Table 1, reference per cell): 7.2 (acidic) [13]

SMILES: NC(=O)N1c2ccccc2C=Cc2ccccc21 [carbamazepine]
- solubility in pediatric gastric fluids in comparison to adult gastric fluids ([4]; fasted gastric fluids, previous study): statistical different (p ≤ 0.05) and outside the purported bioequivalence criterion

SMILES: Nc1ccc(S(=O)(=O)c2ccc(N)cc2)cc1 [dapsone]
- logP ([2]; no reference given): 0.97

SMILES: COC1=CC(=O)C[C@@H](C)[C@]12Oc1c(Cl)c(OC)cc(OC)c1C2=O [griseofulvin]
- Sp/Sa (%) [4, 9]: below 80 % of adult values

SMILES: COc1ccc2c(c1)c(CC(=O)O)c(C)n2C(=O)c1ccc(Cl)cc1 [indomethacin]
- Sp/Sa (%) vs 80–[…] threshold ([4]; newborn gastric media (Pn-FaSSGF), previous study): outside the limits of the 80–125% threshold
- logP ([2]; no reference given): 4.3

SMILES: O=C1NC(=O)C(c2ccccc2)(c2ccccc2)N1 [phenytoin]
- Sp/Sa (%) ([4]; Pnc-FeSSIF, compound of the previous study): significant lower
- Sp/Sa (%) [4, 9]: below 80 % of adult values
